Assay results from ChEMBL document CHEMBL1134603 (J Med Chem, 2001).

The compounds below were run against T1, Human immunodeficiency virus type 1 reverse transcriptase (Human immunodeficiency virus 1, UniProt Q72547) (assay: Inhibition of HIV-1 reverse transcriptase at 25 degree Centigrade).
CCc1ccnc2c1N(C)C(=O)c1cccnc1N2CC was tested, and the IC50 was 0.11 µM.

Each compound was assayed against T1, Human immunodeficiency virus type 1 reverse transcriptase (assay: Inhibition of HIV-1 reverse transcriptase at 37 degree Centigrade).
For Cc1c(Oc2ccccc2)n(COCCO)c(=O)[nH]c1=O, the EC50 was 85 µM.
Cc1c(Sc2ccccc2)[nH]c(=O)[nH]c1=O was tested, and the EC50 was > 250 µM.
Cc1c(Sc2ccccc2)n(C)c(=O)[nH]c1=O was tested, and the EC50 was > 150 µM.
Compound Cc1c(Cc2ccccc2)n(COCCO)c(=O)[nH]c1=O has an EC50 of 23 µM.
CCOCn1c(Cc2ccccc2)c(C(C)C)c(=O)[nH]c1=O [EMIVIRINE] was tested, and the EC50 was 0.004 µM.
Work on Cc1c(Sc2ccccc2)n(COCCO)c(=O)[nH]c1=O [HEPT] yielded an EC50 of 7 µM.
